According to patent publication US20220089540A1 (Board of Trustees of Michigan State University, priority 2019, published 2022):

Key:
CD206 = CD206 expression in RAW 264.7 cells stimulated with E18-14C-27 conditioned media (immunoblot); format: cell-based, mouse; conditions: increasing concentrations, 24 hours
Protocol: RAW 264.7 mouse macrophage-like (ATCC) and E18-14C-27 (Wu et al., Cancer Res. 62, 6376-6380 (2002)) cells were cultured in DMEM supplemented with 10% fetal bovine serum (FBS). RAW 264.7 cells were cultured at 50000/well in a 6 well plate for 24 hours to determine PD-L1 levels. E18-14C-27 cells were cultured for 72 hours in the presence of LG268 for protein levels. Conditioned media was collected from E18-14C-27 at 60-70% confluence for 24 hours; media was then collected and centrifuged at 900 rpm for 5 minutes to eliminate any cell debris.
To explore whether the expression of CD206 in macrophages is dependent on stimulatory factors from tumor cells (e.g., tumor educated macrophages), conditioned media was collected from an established cell line (E18-14C-27 cells) derived from a mammary tumor of an MMTV-Neu mouse. When RAW 264.7 (macrophage-like) cells were stimulated with conditioned media from the E18-14C-27 cancer cells and treated with increasing concentrations of LG268 for 24 hours, a decrease in the expression of CD206 was observed by immunoblotting (FIG. 2E).

CD3 T cells = assay: CD8 subpopulations in isolated spleen CD3 T cells (flow cytometry); format: cell-based, mouse; conditions: anti-CD3ε, 3 days
Protocol: Cells were cultured for a total of 3 days.
Yellow zombie (Biolegend) staining was used to exclude dead cells.

PD-L1 [1] = assay: PD-L1 induction in macrophages or RAW264.7 cells with cancer cell conditioned media (flow cytometry); format: cell-based, mouse; conditions: for PD-L1 Levels: Table 4, Control 43.3
PD-L1 [2] = assay: PD-L1 in THP-1 cells stimulated with SK-BR-3 conditioned media (flow cytometry); format: cell-based, human; conditions: 24 hours
Protocol: THP-1 (ATCC) cells were cultured in RPMI supplemented with 5% FBS, and SK-BR-3 (ATCC) cells were cultured in DMEM supplemented with 10% FBS. THP-1 cells were cultured at 50000/well in a 6 well plate for 24 hours to determine PD-L1 levels with conditioned media from SK-BR-3 cells. Culturing SK-BR-3 cells at 60-70% confluence for 24 hours generated conditioned media; media was then collected and centrifuged at 900 rpm for 5 minutes to eliminate any cell debris. THP-1 cells were then plated at 100000 cells/well with the conditioned media, LG268 was added simultaneously.
For PD-L1 staining, RAW 264.7 cells were plated at 25000 cells/ml in 6 well plates for 24 hours before adding conditioned media from E18-14C-27 and LG268. RAW 264.7 cells were cultured for additional 24 hours with E18-14C-27 conditioned media and LG268. […] THP-1 cells were stained and analyzed for the levels of PD-L1 following the same protocol.

tumors of PyMT mice = assay: PyMT mice, 15-day protocol with or without anti-PD-L1 antibodies; format: in vivo, mouse
Protocol: To evaluate if LG268 treatment would have immunomodulatory effects, PyMT mice with a tumor volume of 32-64 mm^3 were treated with LG268 (100 mg/kg of diet) or control diet for 14 days (FIG. 7A). Mice were euthanized at day 15, and tumor, intact mammary gland and spleen were analyzed by flow cytometry, immunohistochemistry and immunoblotting (whole tumor lysates). At day 15, mice treated with LG268 presented higher levels of PD-L1 when compared with control mice (FIG. 7D-7E).
The inventors tested whether the combination of an immune checkpoint inhibitor and LG268 for the treatment of PyMT tumors would further increase the infiltration of cytotoxic CD8 T cells. PyMT mice with 32-64 mm3 mice were treated by intraperitoneal injection with anti-PD-L1 (40 μg/mouse) or isotype control antibodies on days 3, 7 and 11, in combination with LG268 or control diet (FIG. 7A).

RAR receptor = conditions: cited from earlier work

For `Cc1cc2c(cc1C1(c3ccc(C(=O)O)cn3)CC1)C(C)(C)CCC2(C)C` [LG268], the CD206 expression (CD206) was “decrease”, the “CD8 naive and central memory cells” value (CD3 T cells) was “increased percentage” and the “PD-L1 Levels” value (PD-L1 [1]; 100 nM) was 66.7. The “PD-L1 Levels” value (PD-L1 [1]; 1000 nM) was 77, the “PD-L1 levels in RAW 264.7 cells with E18-14C-27C conditioned media” value (PD-L1 [1]; 24 hours) was “increased levels” and the “PD-L1 levels in THP-1 human macrophages” value (PD-L1 [2]) was “increases”. The “PD-L1 levels in tumors vs control” value (tumors of PyMT mice; 100 mg/kg diet, day 15) was “higher levels”, the “immune cell populations infiltrating to the tumors” value (tumors of PyMT mice; LG268 alone, day 15) was “did not induce any changes” and the “spleen weight vs control diet” value (tumors of PyMT mice; LG268 only) was “significant decrease”. The “binding to the RAR receptor” value (RAR receptor) was “does not bind”.
